# Measured values from US11974976B2, “Animal feeds and feed premixes containing betaine hydrochloride and a phytase” (Rural Chemical Industries (AUST) PTY LTD, priority 2013, dated 2024).
# Counter-ions that a name gives are not always drawn. Marks after values point to notes of the source that are not given here.
# Assays:
# Assay type in all cases: in vivo, broiler chicks
# male Ross 308 chicks [1] = assay: Growth performance of broilers (weight gain, feed intake, feed conversion); details: for Feed efficiency: feed conversion ratio; for Feed efficiency / Feed intake / Weight gain / Gain-corrected FCR: phytase 500 FTU/kg, betaine 2.75 g/kg
# Protocol: (§1) The composition and nutrient specifications of the three basal starter (1-16 days post-hatch) and finisher (17-37 days post-hatch) diets are shown in Table 1. An NSP-degrading enzyme (Econase XT) was included across all the wheat-based diets to reflect standard practice and the finisher diets contained 20 g/kg Celite as an acid insoluble ash dietary marker. The starter diets were fed as mash, while the finisher diets were steam-pelleted at a conditioning temperature of 85° C. The NC1 diets were the ‘phytase-modified’ diets with formulated with reductions of 1.4 g/kg Ca and 1.5 g/kg P in the starter diets, which mainly stemmed from the elimination of dicalcium phosphate. The corresponding reductions in the finisher diets were 1.2 g/kg Ca and 1.4/kg P. The NC2 diets were the ‘betaine-modified’ diets in which energy density, methionine and choline levels were reduced mainly by lower inclusion levels of canola oil and synthetic methionine and the elimination of choline chloride relative to the PC diets. The energy densities were reduced from 12.55 to 12.24 MJ/kg in the starter diets and from 12.97 to 12.66 MJ/kg in the finisher diets. Methionine levels were reduced from 4.44 to 3.19 g/kg in the starter diets and from 4.18 to 2.93 g/kg in the finisher diets. Exogenous phytase (Quantum® Blue; AB Vista) was included in the relevant diets at 100 g per tonne or 500 FTU/kg phytase activity and, similarly, betaine HCl (Hi Beta″, 970 g/kg betaine hydrochloride; Rural Chemical Industries) was included in the diets at 2.75 g/kg.
# (§2) The parameters evaluated included growth performance (weight gains, feed intakes, feed conversion ratios; FCR) from 1 to 16, 17 to 37 and 1 to 37 days post-hatch, 1 to 37 days weight gain-corrected FCR, mortality/cull rates, percentage toe ash, nitrogen (N) excretion and nutrient utilisation. Nutrient utilisation included apparent metabolisable energy (AME), expressed as both MJ/kg and MJ/day, N retention and N-corrected AME (AMEn). Also, breast weights in absolute and relative (% yield) terms, abdominal fat pad weights and pH of gizzard contents were determined. However, for reasons of practical expediency, absolute breast weights were determined on a ‘bone-in’ basis from birds that had not been de-feathered and this approach inflates both the absolute weight and yield; nevertheless, the data remains indicative. The experimental data was obtained and calculated via standard procedures followed by the Poultry Research Foundation. While the various procedures are not detailed in this report the majority of them have been described in detail (Selle et al., 2003b) previously.
# (§3) The experimental data was statistically analysed as a 3×2×2 factorial array of dietary treatments. That is diet type (PC, NC1, NC2), without and with the addition of phytase, without and with the addition of betaine HCl. Each of the 12 dietary treatments was offered to 8 replicate cages of 6 birds or a total of 96 cages and 576 birds (male Ross 308 chicks). The IBM® SPSS® Statistics 20 program was used to analyse experimental data and the study complied with specific guidelines of the Animal Ethics Committee of Sydney University.
# male Ross 308 chicks [2] = assay: Bone mineralisation (percentage toe ash); details: phytase 500 FTU/kg, betaine 2.75 g/kg
# Protocol: as §1, §2
# The experimental data was statistically analysed as a 3×2×2 factorial array of dietary treatments. […]
# male Ross 308 chicks [3] = assay: N excretion during total excreta collection period; details: for N excretion: total excreta collection period, phytase 500 FTU/kg, betaine 2.75 g/kg
# Protocol: as §1, §2, §3
# male Ross 308 chicks [4] = assay: Carcass traits (breast weight, breast meat yield, abdominal fat pad weight); details: for Breast weight: bone-in; for Breast weight / Breast meat yield / Fat pad weight: phytase 500 FTU/kg, betaine 2.75 g/kg
# Protocol: as §1, §2, §3
# [5] = NC1 diets, 1 to 16 days post-hatch
# [6] = NC1 diets, 1 to 37 days post-hatch
# [7] = NC1 diets, 17 to 37 days post-hatch
# [8] = NC2 diets, 1 to 16 days post-hatch
# [9] = NC2 diets, 1 to 37 days post-hatch
# [10] = NC2 diets, 17 to 37 days post-hatch
# [11] = PC diets, 1 to 16 days post-hatch
# [12] = PC diets, 1 to 37 days post-hatch
# [13] = PC diets, 17 to 37 days post-hatch
# [14] = main effect across diets, 1 to 16 days post-hatch
# [15] = main effect across diets, 1 to 37 days post-hatch
# [16] = main effect across diets, 17 to 37 days post-hatch
# [17] = main effect, 17 to 37 days (finisher phase)
# [18] = main effect across diets, hydrochloride
# [19] = main effect across diets, listed as Betaine HCl, hydrochloride
# [20] = main effect across diets, listed as betaine HCl, hydrochloride
smiles,measurement,setting,value
"C[N+](C)(C)CC(=O)O [Betaine, betaine hydrochloride]","Weight gain, phytase x betaine interaction mean","male Ross 308 chicks [1]; 1 to 37 days, across diet types",2202 g/bird
same,"Weight gain, phytase x betaine interaction mean","male Ross 308 chicks [1]; 17 to 37 days, across diet types",1797 g/bird
same,Depression of weight gain versus non-supplemented diets,"male Ross 308 chicks [1]; 17 to 37 days, betaine HCl alone, across diet types",7.70%
same,Feed efficiency,male Ross 308 chicks [1]; [5],1.414
same,Feed intake,male Ross 308 chicks [1]; [5],556 g/bird
same,Weight gain,male Ross 308 chicks [1]; [5],395 g/bird
same,"Weight gain, two-way interaction mean (diet type x additive)","male Ross 308 chicks [1]; NC1 diets, 1 to 37 days",2437 g/bird
same,Feed efficiency,male Ross 308 chicks [1]; [6],1.732
same,Feed intake,male Ross 308 chicks [1]; [6],3478 g/bird
same,Weight gain,male Ross 308 chicks [1]; [6],2012 g/bird
same,Gain-corrected FCR,"male Ross 308 chicks [1]; NC1 diets, 1 to 37 days",1.858 g/g
same,Increase in weight gain on addition to diet,"male Ross 308 chicks [1]; NC1 diets, 1 to 37 days, two-way interaction",0.61%
same,"Weight gain, two-way interaction mean (diet type x additive)","male Ross 308 chicks [1]; NC1 diets, 17 to 37 days",1737 g/bird
same,Feed efficiency,male Ross 308 chicks [1]; [7],1.811
same,Feed intake,male Ross 308 chicks [1]; [7],2923 g/bird
same,Weight gain,male Ross 308 chicks [1]; [7],1618 g/bird
same,Feed efficiency,male Ross 308 chicks [1]; [8],1.394
same,Feed intake,male Ross 308 chicks [1]; [8],523 g/bird
same,Weight gain,male Ross 308 chicks [1]; [8],377 g/bird
same,Feed efficiency,male Ross 308 chicks [1]; [9],1.641
same,Feed intake,male Ross 308 chicks [1]; [9],3728 g/bird
same,Weight gain,male Ross 308 chicks [1]; [9],2272 g/bird
same,Gain-corrected FCR,"male Ross 308 chicks [1]; NC2 diets, 1 to 37 days",1.663 g/g
same,Depression of weight gain on addition to diet,"male Ross 308 chicks [1]; NC2 diets, 1 to 37 days, two-way interaction",5.29%
same,Feed efficiency,male Ross 308 chicks [1]; [10],1.691
same,Feed intake,male Ross 308 chicks [1]; [10],3205 g/bird
same,Weight gain,male Ross 308 chicks [1]; [10],1896 g/bird
same,Depression of weight gain on addition to diet,"male Ross 308 chicks [1]; NC2 diets, 17 to 37 days, two-way interaction",6.27%
same,Feed efficiency,male Ross 308 chicks [1]; [11],1.334
same,Feed intake,male Ross 308 chicks [1]; [11],591 g/bird
same,Weight gain,male Ross 308 chicks [1]; [11],444 g/bird
same,Feed efficiency,male Ross 308 chicks [1]; [12],1.601
same,Feed intake,male Ross 308 chicks [1]; [12],3714 g/bird
same,Weight gain,male Ross 308 chicks [1]; [12],2321 g/bird
same,Gain-corrected FCR,"male Ross 308 chicks [1]; PC diets, 1 to 37 days",1.604 g/g
same,Depression of weight gain on addition to diet,"male Ross 308 chicks [1]; PC diets, 1 to 37 days, two-way interaction",4.90%
same,Feed efficiency,male Ross 308 chicks [1]; [13],1.665
same,Feed intake,male Ross 308 chicks [1]; [13],3123 g/bird
same,Weight gain,male Ross 308 chicks [1]; [13],1878 g/bird
same,Depression of weight gain on addition to diet,"male Ross 308 chicks [1]; PC diets, 17 to 37 days, two-way interaction",6.35%
same,Feed efficiency,"male Ross 308 chicks [1]; main effect across diets, 1 to 16 days post-hatch, hydrochloride",1.380^b
same,Feed efficiency,"male Ross 308 chicks [1]; main effect across diets, 1 to 16 days post-hatch, listed as Betaine HCl, hydrochloride",1.380
same,Feed intake,male Ross 308 chicks [1]; [14],567 g/bird
same,Weight gain,male Ross 308 chicks [1]; [14],413 g/bird
same,Feed efficiency,"male Ross 308 chicks [1]; main effect across diets, 1 to 37 days post-hatch, hydrochloride",1.647
same,Feed efficiency,"male Ross 308 chicks [1]; main effect across diets, 1 to 37 days post-hatch, listed as betaine HCl, hydrochloride",no significant impact
same,Feed intake,male Ross 308 chicks [1]; [15],3756 g/bird
same,Weight gain,male Ross 308 chicks [1]; [15],2288 g/bird
same,Gain-corrected FCR,"male Ross 308 chicks [1]; main effect across diets, 1 to 37 days, hydrochloride",1.663^a g/g
same,Gain-corrected FCR,"male Ross 308 chicks [1]; main effect across diets, 1 to 37 days, listed as betaine HCl, hydrochloride",1.663 g/g
same,Feed efficiency,"male Ross 308 chicks [1]; main effect across diets, 17 to 37 days post-hatch, hydrochloride",1.707^b
same,Feed efficiency,"male Ross 308 chicks [1]; main effect across diets, 17 to 37 days post-hatch, listed as betaine HCl, hydrochloride",1.707
same,Feed intake,male Ross 308 chicks [1]; [16],3189 g/bird
same,Weight gain,male Ross 308 chicks [1]; [16],1875^a g/bird
same,Depression of gain-corrected FCR,"male Ross 308 chicks [1]; main effect, 1 to 37 days",3.42%
same,Depression of feed efficiency,male Ross 308 chicks [1]; [17],2.46%
same,Depression of weight gain,male Ross 308 chicks [1]; [17],4.48%
same,Depression of growth rates,"male Ross 308 chicks [1]; main effect, entire feeding period",3.38%
same,Improvement in feed efficiency (FCR),"male Ross 308 chicks [1]; main effect, starter phase, 1 to 16 days post-hatch",3.77%
same,Toe ash,male Ross 308 chicks [2]; NC1 diets,11.15%
same,Toe ash,male Ross 308 chicks [2]; NC2 diets,12.29%
same,Toe ash,male Ross 308 chicks [2]; PC diets,11.99%
same,Toe ash,male Ross 308 chicks [2]; main effect across diets,12.07%
same,N excretion,male Ross 308 chicks [3]; NC1 diets,37.30 g/bird
same,Reduction of N excretion versus NC2 control diets,male Ross 308 chicks [3]; NC2 diets,7.03%
same,N excretion,male Ross 308 chicks [3]; NC2 diets,42.47 g/bird
same,N excretion,male Ross 308 chicks [3]; PC diets,40.34 g/bird
same,Reduction of N excretion,male Ross 308 chicks [3]; main effect,7.69%
same,N excretion,male Ross 308 chicks [3]; [18],38.79^a g/bird
same,N excretion,male Ross 308 chicks [3]; [19],38.79 g/bird
same,N excretion,male Ross 308 chicks [3]; [20],38.79 g/bird
same,Breast weight,male Ross 308 chicks [4]; NC1 diets,526 g/bird
same,Breast meat yield,male Ross 308 chicks [4]; NC1 diets,25.7%
same,Fat pad weight,male Ross 308 chicks [4]; NC1 diets,14.7 g/bird
same,Breast weight,male Ross 308 chicks [4]; NC2 diets,625 g/bird
same,Breast meat yield,male Ross 308 chicks [4]; NC2 diets,26.9%
same,Fat pad weight,male Ross 308 chicks [4]; NC2 diets,18.4 g/bird
same,Breast weight,male Ross 308 chicks [4]; PC diets,660 g/bird
same,Breast meat yield,male Ross 308 chicks [4]; PC diets,28.3%
same,Fat pad weight,male Ross 308 chicks [4]; PC diets,17.3 g/bird
same,"Breast meat yield, phytase x betaine interaction mean",male Ross 308 chicks [4]; across diet types,27.0%
same,"Fat pad weight, phytase x betaine interaction mean",male Ross 308 chicks [4]; across diet types,16.8 g/bird
same,Decrease in fat pad weights by betaine HCl,male Ross 308 chicks [4]; in the absence of phytase,17.6%
same,Increase in fat pad weights by betaine HCl,male Ross 308 chicks [4]; in the presence of phytase,8.67%
same,Increase in breast meat yield (relative),male Ross 308 chicks [4]; main effect,1.91%
same,Increase in breast yield,male Ross 308 chicks [4]; main effect,0.5 percentage units
same,Breast weight,male Ross 308 chicks [4]; [18],624 g/bird
same,Breast weight,"male Ross 308 chicks [4]; main effect across diets, listed as betaine, hydrochloride",no influence
same,Breast meat yield,male Ross 308 chicks [4]; [18],26.7^b %
same,Fat pad weight,male Ross 308 chicks [4]; [18],19.1 g/bird
same,Breast meat yield,male Ross 308 chicks [4]; [19],26.7%
same,Breast meat yield,male Ross 308 chicks [4]; [20],26.7%
same,Fat pad weight,male Ross 308 chicks [4]; [20],no effect
